# Patent EP2876156A1 (COMMISSARIAT A L'ENERGIE ATOMIQUE ET AUX ENERGIES …, priority 2013, dated 2015)
# Assays:
# [1] = tested on: Decarboxyl (or Decarboxy2); assay: Enzymatic hydroxylation followed by decarboxylation to hydroxylated diamino alkanes, conversion by HPLC (protocol A); type: biochemical, Flavobacterium johnsoniae; Chitinophaga pinensis; conditions: L-lysine or L-ornithine hydroxylated (part V conditions), then PLP, DTT and Decarboxy1 (or Decarboxy2) added, 18h at 37 °C; HPLC after Fmoc-Cl derivatization
# Protocol: The conversions were determined by HPLC after Fmoc-Cl derivatization (protocol A). Atlantis T3 (3µm 4.5*150 mm) at 35°C with the gradient 50-86% eluent B (MeCN + 0.1% TFA) and eluent A (H2O + 0.1% TFA) in 20 min at 1 mL/min […].
# L-lysine was converted into (3S)-3-hydroxy-L-lysine by ENZ1 in conditions described in part V.
# 30 µL pyridoxal 5'-phosphate (PLP) 10 mM, 3 µL dithiothreitol (DTT) 100 mM and Decarboxyl (or Decarboxy2) 50 µL 1.5 mg/mL were then added in the reaction medium. The mixture was stirred (1000 rpm) for 18h at 37 °C.
# Lysine was converted into (4R)-4-hydroxy-L-lysine in conditions described in part V 30 µL PLP 10 mM, 3 µL DTT 100 mM and Decarboxyl(or Decarboxy2) 50 µL 1.5 mg/mL were then added in the reaction medium to perform decarboxylation. The mixture was stirred (1000 rpm) for 18h at 37 °C.
# The mixture was stirred (1000 rpm) for 18h at 37 °C.
# Lysine was converted into (3R,4R)-3,4-dihydroxy-L-lysine in conditions described in part V, by cascade reaction with ENZ1 (SEQ NO:1) and ENZ2 (SEQ NO:2).
# The volume of the reaction medium was reduced to 180 µL using a speedvac. 26 µL PLP 10 mM, 2.6 µL DTT 100 mM and Decarboxyl (or Decarboxy2) 50 µL (lysat) were then added to perform decarboxylation. The mixture was stirred (1000 rpm) for 18h at 37 °C.
# [2] = target: T1, ENZ2 SEQ ID NO:2 (Flavobacterium johnsoniae, UniProt A5FF23); type: biochemical; conditions: enzyme 0.08 mg/mL, molar ratio α-ketoglutarate/substrate 15/10, Hepes buffer 50 mM pH 7,5, Mohr's salt 1mM, without sodium ascorbate, room temperature, three hours
# T1 construct: His6 (hexahistidine, inserted after the initial methionine) (N); made in house; host or cells: E. coli BL21(DE3) plysE
# T1 sequence (A5FF23 1-370): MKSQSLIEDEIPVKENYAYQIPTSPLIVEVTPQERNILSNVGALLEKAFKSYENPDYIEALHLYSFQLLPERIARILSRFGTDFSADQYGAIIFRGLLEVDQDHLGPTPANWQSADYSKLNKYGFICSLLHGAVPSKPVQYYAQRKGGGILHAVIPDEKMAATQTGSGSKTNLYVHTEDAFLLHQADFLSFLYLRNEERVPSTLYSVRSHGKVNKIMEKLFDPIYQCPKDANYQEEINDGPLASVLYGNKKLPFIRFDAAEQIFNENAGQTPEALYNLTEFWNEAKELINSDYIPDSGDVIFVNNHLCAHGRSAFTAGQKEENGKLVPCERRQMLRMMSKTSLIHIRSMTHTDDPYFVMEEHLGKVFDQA
# Protocol: (§1) Enzymatic reaction medium (0.2 µmole, leq.), borate buffer 0,2M pH 7.7 (80 µL) and Fmoc-Cl solution7.5 mM in acetone (100 µL, 0.75 µmole, 3.75 eq) were hand shaked in a closed 1.50 mL eppendorf for one minute. The aqueous layer was extracted with petroleum ether (3*1 mL) to eliminate excess of Fmoc-Cl. 70 µL of the aqueous phase were withdrawn, diluted with 70 µL of acetonitrile and injected into the HPLC. For substrates with two amine functions, 100 µL of Fmoc-Cl solution 15 mM were used.
# (§2) Conditions for HPLC analysis: Atlantis® T3 (3 µm 4.5*150 mm) at 35°C with the gradient 50-86% eluent B (MeCN + 0.1% TFA) and eluent A (H2O + 0.1% TFA) in 20 min at 1 mL/min.
# (§3) Enzymes (0.08 mg/mL) were screened against substrates (molar ratio α-ketoglutarate/substrate 15/10) in Hepes buffer 50 mM pH 7,5, with Mohr's salt at 1mM and without sodium ascorbate, at room temperature for three hours. The potential conversions of the substrates were determined by HPLC after Fmoc-Cl derivatization as section III here above.
# [3] = target: T2, ENZ3 SEQ ID NO:3 (Chitinophaga pinensis, UniProt C7PLM6); type: biochemical; conditions: enzyme 0.08 mg/mL, molar ratio α-ketoglutarate/substrate 15/10, Hepes buffer 50 mM pH 7,5, Mohr's salt 1mM, without sodium ascorbate, room temperature, three hours
# T2 construct: His6 (hexahistidine, inserted after the initial methionine) (N); made in house; host or cells: E. coli BL21(DE3) plysE
# T2 sequence (C7PLM6 1-382): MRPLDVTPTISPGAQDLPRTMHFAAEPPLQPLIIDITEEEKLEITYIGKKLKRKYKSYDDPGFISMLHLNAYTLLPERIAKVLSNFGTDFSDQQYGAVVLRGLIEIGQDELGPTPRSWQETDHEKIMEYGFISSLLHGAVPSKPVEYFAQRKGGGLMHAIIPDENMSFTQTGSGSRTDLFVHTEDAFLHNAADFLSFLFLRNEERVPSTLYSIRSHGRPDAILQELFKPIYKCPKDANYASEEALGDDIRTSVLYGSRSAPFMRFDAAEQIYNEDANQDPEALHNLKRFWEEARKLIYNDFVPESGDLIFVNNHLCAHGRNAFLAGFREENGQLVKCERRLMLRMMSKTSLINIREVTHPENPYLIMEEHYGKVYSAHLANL
# Protocol: as §1, §2, §3
# [4] = target: T3, ENZ4 SEQ ID NO:4 (Catenulispora acidiphila, UniProt C7Q942); assay: Substrate selectivity screening of hydroxylase (conversion by HPLC after Fmoc-Cl derivatization); type: biochemical; conditions: enzyme 0.08 mg/mL, molar ratio α-ketoglutarate/substrate 15/10, Hepes buffer 50 mM pH 7,5, Mohr's salt 1mM, without sodium ascorbate, room temperature, three hours
# T3 construct: His6 (hexahistidine, inserted after the initial methionine) (N); made in house; host or cells: E. coli BL21(DE3) plysE
# T3 sequence (C7Q942 1-343): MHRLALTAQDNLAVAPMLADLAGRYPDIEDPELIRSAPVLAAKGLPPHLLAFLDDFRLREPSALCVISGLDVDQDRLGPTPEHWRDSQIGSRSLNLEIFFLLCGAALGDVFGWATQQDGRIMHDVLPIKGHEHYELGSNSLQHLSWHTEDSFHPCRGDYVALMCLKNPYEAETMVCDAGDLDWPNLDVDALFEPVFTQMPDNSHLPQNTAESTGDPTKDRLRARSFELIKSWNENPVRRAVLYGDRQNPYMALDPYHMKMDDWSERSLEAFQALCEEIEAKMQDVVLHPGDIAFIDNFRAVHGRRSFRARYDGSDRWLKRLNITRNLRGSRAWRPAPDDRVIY
# Protocol: as §1, §2, §3
# [5] = target: T4, ENZ1 SEQ ID N°1 (Catenulispora acidiphila, UniProt C7QJ42); assay: as above; type: biochemical; conditions: enzyme 0.08 mg/mL, molar ratio α-ketoglutarate/substrate 15/10, Hepes buffer 50 mM pH 7,5, Mohr's salt 1mM, without sodium ascorbate, room temperature, three hours
# T4 construct: His6 (hexahistidine, inserted after the initial methionine) (N); made in house; host or cells: E. coli BL21(DE3) plysE
# T4 sequence (C7QJ42 1-358): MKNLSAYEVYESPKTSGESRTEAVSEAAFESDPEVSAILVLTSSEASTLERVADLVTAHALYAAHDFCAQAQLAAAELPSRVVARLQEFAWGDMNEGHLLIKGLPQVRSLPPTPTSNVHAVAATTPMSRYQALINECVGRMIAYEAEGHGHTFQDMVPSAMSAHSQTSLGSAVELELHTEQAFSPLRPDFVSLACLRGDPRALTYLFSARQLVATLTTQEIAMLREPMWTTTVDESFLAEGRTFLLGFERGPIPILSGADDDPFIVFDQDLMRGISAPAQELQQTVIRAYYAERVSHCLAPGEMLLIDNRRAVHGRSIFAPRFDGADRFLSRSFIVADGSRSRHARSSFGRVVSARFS
# Protocol: as §1, §2, §3
# [6] = target: T3, ENZ4 SEQ ID NO:4; assay: Enzymatic hydroxylation of L-ornithine and L-arginine, 10 mL scale, conversion by HPLC; type: biochemical; conditions: ENZ4 0.595 mg/mL, without sodium ascorbate, room temperature, 18h; HPLC after FDAA derivatization (protocol B)
# Protocol: 70 µL of the aqueous phase were withdrawn, diluted with 70 µL of acetonitrile and injected into the HPLC. […]
# as §2
# [7] = target: T5, ENZ5 (SEQ ID NO:9) (Niastella koreensis, UniProt G8T8D0); assay: Hydroxylation capability, HPLC analysis of reaction media after derivatization; type: biochemical
# T5 construct: His6 (hexahistidine, inserted after the initial methionine) (N); made in house; host or cells: E. coli BL21(DE3) plysE
# T5 sequence (G8T8D0 1-371): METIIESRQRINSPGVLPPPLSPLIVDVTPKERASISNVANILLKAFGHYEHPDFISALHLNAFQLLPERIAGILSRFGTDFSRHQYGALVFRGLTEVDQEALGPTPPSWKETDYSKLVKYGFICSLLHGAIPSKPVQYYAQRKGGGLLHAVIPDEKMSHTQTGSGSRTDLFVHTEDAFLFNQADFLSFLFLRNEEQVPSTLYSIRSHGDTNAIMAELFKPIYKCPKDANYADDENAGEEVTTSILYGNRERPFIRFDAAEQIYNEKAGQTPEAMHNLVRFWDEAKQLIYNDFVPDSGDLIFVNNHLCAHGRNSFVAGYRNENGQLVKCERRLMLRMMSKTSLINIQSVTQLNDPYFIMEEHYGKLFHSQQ
# Protocol: as §3
# (§4) The hydroxylation capability of two other enzymes, namely ENZ6 (SEQ ID NO:10) and ENZ5 (SEQ ID NO:9) were also assessed. The amino sequence of ENZ6 has 79% of amino acid identity with SEQ ID NO:2 of ENZ2 while the amino sequence of ENZ5 has 72% of amino acid identity with SEQ ID NO:3 of ENZ3. […] As shown in part VI, ENZ6 and ENZ5 provide (4R)-hydroxy-L-lysine from L-lysine similarly to ENZ2 and ENZ3. Thus ENZ6 and ENZ5 are likely to have the same substrate selectivity and provide similar products as ENZ2 and ENZ3.
# [8] = target: T6, ENZ6 (SEQ ID NO:10) (Flavobacterium sp., UniProt J3BZS6); assay: as above; type: biochemical
# T6 construct: His6 (hexahistidine, inserted after the initial methionine) (N); made in house; host or cells: E. coli BL21(DE3) plysE
# Protocol: as §3, §4
# T6 sequence (J3BZS6 whole entry): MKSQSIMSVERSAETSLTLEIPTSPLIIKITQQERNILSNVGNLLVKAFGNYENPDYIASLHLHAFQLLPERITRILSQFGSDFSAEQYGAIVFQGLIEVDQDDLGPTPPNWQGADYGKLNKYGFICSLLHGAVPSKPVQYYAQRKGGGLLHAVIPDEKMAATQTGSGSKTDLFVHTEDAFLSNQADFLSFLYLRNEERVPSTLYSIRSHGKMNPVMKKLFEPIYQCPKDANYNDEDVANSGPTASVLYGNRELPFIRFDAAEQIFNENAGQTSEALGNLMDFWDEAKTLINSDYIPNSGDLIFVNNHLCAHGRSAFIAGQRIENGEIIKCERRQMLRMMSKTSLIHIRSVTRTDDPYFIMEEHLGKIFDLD
structure (smiles),measurement,setting,value
"NCCC(O)CCN [1,5-diamino-3-pentanol]",Conversion,[1],100%
"NCC[C@@H](O)[C@H](O)CN [(2R,3R)-1,5-diamino-2,3-pentanediol]",Conversion,[1],> 90%
"NCC[C@H](O)CN [(2S)-1,4-diamino-2-butanol]",Conversion,[1],50%
"NCCC[C@H](O)CN [(2S)-1,5-diamino-2-pentanol]",Conversion,[1],> 95%
N=C(N)NCCC[C@H](N)C(=O)O [L-arginine],"potential conversions of the substrates, ENZ2 SEQ ID NO:2",[2],negative
same,"potential conversions of the substrates, ENZ3 SEQ ID NO:3",[3],negative
same,"potential conversions of the substrates, ENZ4 SEQ ID NO:4",[4],positive
same,"potential conversions of the substrates, ENZ1 SEQ ID N°1",[5],negative
same,conversion of L-arginine into hydroxylated product,[6],50%
NCCC[C@H](N)C(=O)O [L-ornithine],hydroxylation capability of ENZ5,[7],not able to convert
same,hydroxylation capability of ENZ6,[8],not able to convert
